# No end group written: not given here.
# What was measured:
# [1] = system: IdIs derived from NOD/Uf pancreatic IPSCs; assay: Insulin content and secretion of cultured IdIs upon glucose stimulation (insulin ELISA); assay type: cell-based, mouse; details: for insulin release from IdIs by secretagogues: 10 mM arginine or 1 nM GLP-1 with 17.5 mM glucose, final 3 hours, lesser degree than nicotinamide
# Protocol: To determine insulin secretion, 300 IdIs derived from NOD/Uf pancreatic IPSCs were cultured in vitro for 5 days in EHAA medium containing either 0.5% NMS or prediabetic NOD mouse serum with or without nicotinamide (1-10 mM). At the end of the culture period, cells were washed twice in Krebs ringer buffer (KRB) and stimulated with 17.5 mM glucose in KRB for 3 hours.
# Three hundred IdIs (from culture flasks containing EHAA-0.5% NMS medium) were seeded in 24 well plates in 2 ml of EHAA medium containing 0.5% of NMS with or without nicotinamide (1-10 mM) for 5 days at 37° C. (5% CO2). For secretagogues, IdIs were cultured in EHAA-0.5% NMS medium for 5 days. Three hours prior to the end of the incubation period, medium was removed and IdIs gently washed twice with KRB. To stimulate insulin secretion, 17.5 mM glucose was added to wells in 1 ml of KRB, and incubated at 37° C. for 3 hrs. Following incubation, culture supernatants were stored at −70° C. until use. The IdIs in each well were then subjected to 1 ml of ice-cold acid-ethanol extraction overnight at 4° C., and cell-free extracts were neutralized with Tris base (400 mM final concentration) prior to storing at −70° C. until use. To test the effect of secretagogues, 10 mM arginine and 1 nM GLP-1 (Sigma Chemicals, St Louis, Mo.) were used for the final 3 hours incubation in KRB. The insulin in the supernatants and in the extract were determined using an insulin ELISA kit (Crystal Chemical Inc., Chicago, Ill.), with rat insulin standard for quantitation (supplied in the kit). Comparisons between groups were done using the one tailed t-test.
# IPSC line #7 = assay: Expression of development/differentiation factors in IPSC line #7 under nicotinamide; assay type: cell-based, mouse
# Protocol: Nicotinamide has also been determined to enhance expression of various factors involved in the development/differentiation of the pancreas. […] A differentially regulated expression of Ins I and II was also apparent: Ins I was expressed at lower concentrations of nicotinamide (1-20 mM), while Ins II was expressed at 20-40 mM nicotinamide. Glucagon expression was visible only at a low dose of nicotinamide (<10 mM), while amylase expression was maintained at all doses (0-40 mM) (data not shown).
# human cell line (#H3) = assay: Differentiation of human IPSCs with nicotinamide and ECM (immunohistochemical staining); assay type: cell-based; details: upon treatment with nicotinamide
# Description: Several lines were derived from human pancreatic ductal preparation provided by DRI (Miami, Fla.). […] Only about 2% of the cells express insulin (FIG. 16M). None of the cells express tyrosine hydroxylase (FIG. 16G).
Molecule,insulin release from IdIs by secretagogues [1],"differentiation of IPCs to IdIs ([1]; in combination with epidermal growth factor or hepatocyte growth factor, data not shown)","insulin content of IdIs ([1]; nicotinamide 1-10 mM for 5 days, then 17.5 mM glucose 3 hours, versus glucose alone)","insulin secretion of IdIs ([1]; nicotinamide 1-10 mM for 5 days, then 17.5 mM glucose 3 hours, versus glucose alone, P<0.05)",nicotinamide concentration at which Ins I was expressed (IPSC line #7; IPSC line #7) [mM],nicotinamide concentration at which Ins II was expressed (IPSC line #7; IPSC line #7) [mM],"nicotinamide dose at which glucagon expression was visible (IPSC line #7; IPSC line #7, data not shown) [mM]","nicotinamide doses at which amylase expression was maintained (IPSC line #7; IPSC line #7, data not shown) [mM]","expression of development/differentiation factors (IPSC line #7; at different doses, data not shown)",cells expressing insulin (human cell line (#H3)),cells expressing tyrosine hydroxylase (human cell line (#H3)),expression of pancreatic products (human cell line (#H3))
N=C(N)NCCC[C@H](N)C(=O)O [arginine],induced insulin release,,,,,,,,,,,
NC(=O)c1cccnc1 [nicotinamide],,induced the differentiation of IPCs to IdIs,increased insulin content,significantly increased levels of insulin,1 to 20,20 to 40,< 10,0 to 40,"enhancement of Isl-1, beta2/neuroD, IPF-1, Nkx 2.2 and 6.1",about 2%,None,"express glucagon (FIG. 16K), amylase (FIG. 16I), cytokeratin 7 (FIG. 16C), and cytokeratin 19 (FIG. 16E)"
"glucagon like peptide-1 (HAEGTFTSDVSSYLEGQAAKEFIAWLVKGR; ends and bridges not checked; UniProt P01275 98-127, looked up) [GLP-1, secretagogue stimulating β cells through elevation of cAMP and the protein kinase A pathway]",induced insulin release,,,,,,,,,,,
